Consider one molecule from patent US20260053767A1, “Hepatoprotective Compositions And Methods” (Jemyll, Ltd., priority 2022, published 2026).

Entries after “also recorded” stand apart in the source; their conditions may differ.

Data set [1] concerns primary human hepatocytes. Kind of data set: In vitro palmitic acid stimulation, gene expression by quantitative real-time PCR. It is filed as cell-based. The method, then:
Total RNA from human primary hepatocytes was extracted using the RNeasy Plus Mini Kit according to the indications provided by the company. A small aliquot of total RNA obtained (3 μl) was subjected to qualitative and quantitative control by using the microdrop. The qualitative and quantitative assessment of the individual samples was determined using a dedicated software. The total RNA was reverse transcribed into cDNA by using iScript RT. SYBR Green gene expression assays were performed according to the manufacturer's instruction using the iQTMSYBR Green Supermix and the CFX96 Touch Real-Time PCR Detection System. For this purpose, the following pairs of primer were used: solute carrier family 13 member 5 (SLC13A5) (forward 5′ […] 3′ (SEQ ID NO:1) and reverse 5′ […] 3′ (SEQ ID NO:2)), Diacylglycerol O-Acyltransferase 1 (DGAT1) (forward 5′ […] 3′ (SEQ ID NO:3) and reverse 5′ […] 3′ (SEQ ID NO:4)), Fatty Acid Synthase (FASN) (forward 5′ […] 3′ (SEQ ID NO:5) and reverse 5′ […] 3′ (SEQ ID NO:6)), carnitine palmitoyltransferase 1A (CPT1A) (forward 5′ […] 3′ (SEQ ID NO:7) and reverse 5′ […] 3′ (SEQ ID NO:8)) and Acetyl-CoA carboxylase (ACC1) (forward 5′ […] 3′ (SEQ ID NO:9) and reverse 5′ […] 3′ (SEQ ID NO:10)). mRNA expression levels were normalized to B2-microglobulin (forward 5′[…] 3′ (SEQ ID NO:11); and reverse 5′[…] 3′ (SEQ ID NO:12)) and quantification of relative gene expression, presented as percentage of the relevant baseline, was calculated using the 2-ACT (comparative threshold) method.
Isolation of human primary hepatocytes: Tissue obtained during percutaneous liver biopsy, was diced (<3 mm) and washed in HBSS to remove excess blood. Tissue was then transferred to a tube containing pre-warmed EGTA buffer (HBSS, 0.5 mM EGTA, 0.5% fatty acid free bovine serum albumin (BSA)) and agitated (100 rpm) in a water bath with shaking bed for 10 min, 37° C. After three washes, to remove the remaining blood and EGTA, the tissue was placed in pre-warmed digestion buffer (HBSS, 0.05% collagenase IV, 0.5% fatty acid free BSA, 10 mM CaC12) and agitated (100 rpm) in a water bath with shaking bed for 30 min, 37° C. The digested tissue was filtered through 100 μm cell strainer while the remaining tissue was again digested in fresh digestion buffer (20). Cell suspensions were pooled and centrifuged at 80 g for 5 min, 4° C. and the supernatant discarded. Cells were grown until confluent and used for citrate uptake analysis.
At the end of the stimulation de novo lipogenesis, fatty acid beta-oxidation and SLC13A5 gene expression were assessed by Quantitative Real-Time PCR Analysis.
For orientation: Real-time PCR tracks product formation cycle by cycle.

The subject of the next data set is Wistar rats. Kind of data set: Study 1 (prevention): oral glucose tolerance test and HOMA-IR. The format is in vivo. The settings on record: Study 1: 1% (w/vol) in drinking water with high fat-high cholesterol diet for 4 weeks. The method, then:
Study design: All animal procedures were approved by the Catholic University of Rome Institutional Animal Care Committee. The design of the studies is summarized in FIG. 18, Panels A and B. • Study 1: Twenty adult Wistar rats, aged 8-10 weeks, were included in the study. The rats were housed in individual cages at 22° C. with 12-h light cycles and had ad libitum access to food and water. Rats were fed a high-fat high-cholesterol diet (44% Carbohydrate, 14% Protein, 42% fat+0.2% Cholesterol) (Mucedola, Milan, IT) for four weeks in the presence or absence of 1% Dodecanedioic acid, sodium salt (w/vol) dissolved in the water (FIG. 18, Panel A). Body weight and food/water intake were monitored weekly. • Study 2: Twenty adult Wistar rats, aged 8-10 weeks, were included in the study. The rats were housed in individual cages at 22° C. with 12-h light cycles and had ad libitum access to food and water. Rats were fed a high-fat high-cholesterol diet (44% Carbohydrate, 14% Protein, 42% fat+0.2% Cholesterol) (Mucedola, Milan, IT). After nine weeks of diet, rats were randomly assigned to one of the following groups: Four weeks of high-fat high-cholesterol diet or four weeks of high-fat high-cholesterol diet and 1% Dodecanedioic acid, sodium salt (w/v) dissolved in the water FIG. 18, Panel B). Body weight and food/water intake were monitored weekly.
Oral Glucose Test Tolerance (OGTT): All animals underwent an OGTT at the end of the study. After an overnight fasting, the rats received a 50% D-glucose solution (1 g/kg body weight) by oral gavage. Blood samples were taken by tail bleeding and collected in EDTA tubes. All blood samples were immediately centrifuged, and plasma divided into appropriate subsamples and stored at −20° C. for further analysis. Blood glucose and was measured at 0, 20, 40, 60, 80, 100 and 120 minutes, while plasma insulin at 0, 60 and 120 minutes. Blood glucose levels were measured by glucometer (Accu-Chek, Roche Diagnostics Division, Grenzacherstrasse, CH). Plasma insulin was measured by ELISA (EMD Millipore Corporation, Billerica, MA), with a sensitivity of 0.1 ng/ml and an intra-and inter-assay precision of 1.9% and 7.6%, respectively.
DODA administration prevents the onset of insulin resistance and NASH: To test the hypothesis that DODA could prevent the development of diet-induced insulin resistance and NASH, the inventors administered 1% (w/vol) of DODA in the drinking water together with a high fat-high cholesterol diet for 4 weeks. Rats fed high fat-high cholesterol diet without the administration of DODA were included as controls.
Panels A and B. • Study 1: Twenty adult Wistar rats, aged 8-10 weeks, were included in the study. The rats were housed in individual cages at 22° C. with 12-h light cycles and had ad libitum access to food and water. Rats were fed a high fat high cholesterol diet (44% Carbohydrate, 14% Protein, 42% fat+0.2% Cholesterol) for 4 weeks in the presence or absence of 1% Dodecanedioic acid, sodium salt dissolved in the water (FIG. 25, Panel A). Body weight and food/water intake were monitored weekly. • Study 2: Twenty adult Wistar rats, aged 8-10 weeks, were included in the study. The rats were housed in individual cages at 22° C. with 12-h light cycles and had ad libitum access to food and water. Rats were fed a high fat-high cholesterol diet (44% Carbohydrate, 14% Protein, 42% fat+0.2% Cholesterol). […] Body weight and food/water intake were monitored weekly. […]

The mark [2] stands for this setting: primary human hepatocytes, C12 1% (v/w) with palmitic acid 0.4 mM, vs palmitic acid alone.

As to `O=C(O)CCCCCCCCCCC(=O)O` [DDDA, dodecanedioic acid], the “gene expression of citrate transporter SLC13A5” value in data set [1] (human hepatocytes, C12 1% (v/w) with palmitic acid 0.4 mM, vs palmitic acid alone, listed as C12) was “significant decrease; also recorded: reducing citrate transporter SLC13A5”. The “DNL in primary hepatocytes (figure legend)” value in data set [1] (palmitic acid 0.4 mM, C12 1%) is on record as “reduces”. Moreover, in data set [1] (setting [2]), the “ACC1 (de novo lipogenesis enzyme)” value is on record as “significant reduction”, the “CPT1A (fatty acid beta-oxidation enzyme)” value is on record as “significant increase”, the “DGAT (de novo lipogenesis enzyme)” value was “significant reduction” and the “FASN (de novo lipogenesis enzyme)” value was “significant reduction”. Besides, in the data set with Wistar rats (vs controls), the “blood glucose concentrations during an oral glucose tolerance test” value is recorded as “decrease”, the “hepatic insulin resistance assessed by HOMA-IR” value is listed as “decreased” and the “plasma insulin concentrations during an oral glucose tolerance test” value is listed as “decrease”. In addition, the “diet-induced insulin resistance and NASH (overall, prevention)” value with Wistar rats (listed as C12) was “able to prevent diet-induced insulin resistance and NASH; also recorded: prevents diet-induced insulin resistance and NASH”. Further, the “diet-induced insulin resistance and NASH (overall, prevention)” value in the data set on Wistar rats (listed as DODA) was “able to prevent diet-induced insulin resistance and NASH; also recorded: prevents diet-induced insulin resistance and NASH”.
